For six molecules, IC50 results are on record in patent US10196382B2, “bis-Pyridazine compounds and their use in treating cancer” (AstraZeneca AB, priority 2015, dated 2019).

Molecules are shown by their SMILES.

For one experiment, the system named is NCI-H1703 cells. Briefly: GLS Cell Proliferation Assay (NCI-H1703). As to conditions: Homo sapiens, 120 h; NCI-H1703 cells, 5 days incubation, Sytox Green; read-out: Assay c) GLS Cell Proliferation Assay. It is filed as cell-based. From the text: (§1) The following assays were used to measure the effects of the compounds of the present invention: a) GLS Enzyme Potency Assay; b) GLS Cell Potency Assay; c) GLS Cell Proliferation Assay. During the description of the assays, generally: • i. The following abbreviations have been used: CO2=Carbon dioxide; DMEM=Dulbecco's Modified Eagle Medium; DMSO=Dimethyl sulphoxide; EDTA=Ethylenediaminetetraacetic acid; EGTA=Ethylene glycol tetraacetic acid; FCS=Foetal calf serum; h=Hour(s); NBS=Non-binding surface; SDS=Sodium dodecyl sulphate; TRIS=Tris(Hydroxymethyl)aminomethane. • ii. IC50 values were calculated using a smart fitting model in Genedata. […] Assay a): GLS Enzyme Potency Assay
The ability of compounds to inhibit cell growth was measured using a 384 well plate NCI-H1703 cell proliferation assay. […] DMSO concentration was maintained at 0.3% by back filling with DMSO solution. Plates were incubated for 5 days at 37° C., 5% CO2, Sytox Green and Saponin added to final concentration of 2 μM and 0.25% respectively and incubated for 6 h prior to analysis. […] IC50 values were calculated by curve fitting to max inhibition of day zero growth using GeneData software analysis.

The test system of experiment [1] is cellular GLS activity in PC3 cells. Briefly: GLS Cell Potency Assay (PC3 coupled assay measuring cellular glutamate depletion). It is filed as cell-based. The conditions noted are these: Homo sapiens, PC-3; PC3 cells, 6 h incubation, cellular glutamate depletion; read-out: Assay b) GLS Cell Potency Assay IC50.
Description: as §1
Compounds were assessed for their potential to inhibit cellular GLS activity by use of a PC3 coupled assay measuring cellular glutamate depletion. […] DMSO concentration was maintained at 0.3% by back filling with DMSO solution. PC3 cells were grown in phenol free DMEM, 10% dialyzed FCS, 2 mM glutamine and following dispersal by trypsinisation were plated at 5.6×10^3 cells per well in 40 μl of growth medium directly into the 384 well assay plates containing dispensed compound. After incubation for 6 h at 37° C., 5% CO2 growth media was aspirated and cells lysed in 15 μl of buffer containing 10 mM TRIS pH7.4, 100 mM NaCl, 1 mM EDTA, 1 mM EGTA, 1 mM NaF, 20 mM Na4P2O7, 2 mM Na3VO4, 1% Triton X-100, 10% glycerol, 0.1% SDS and 0.5% deoxycholate.

The target in a further experiment is GLS1 (Homo sapiens (Human), UniProt O94925). The experiment can be described thus: GLS Enzyme Potency Assay (Glutamate Oxidase/AmplexRed coupled assay). It is filed as biochemical. The conditions noted are these: 6His tagged GLS protein (amino acids 63-669), 60 minutes reaction with glutamine. The source says:
The following assays were used to measure the effects of the compounds of the present invention: a) GLS Enzyme Potency Assay; b) GLS Cell Potency Assay; c) GLS Cell Proliferation Assay. During the description of the assays, generally: • i. The following abbreviations have been used: CO2=Carbon dioxide; DMEM=Dulbecco's Modified Eagle Medium; DMSO=Dimethyl sulphoxide; EDTA=Ethylenediaminetetraacetic acid; EGTA=Ethylene glycol tetraacetic acid; FCS=Foetal calf serum; h=Hour(s); NBS=Non-binding surface; SDS=Sodium dodecyl sulphate; TRIS=Tris(Hydroxymethyl)aminomethane. • ii. IC50 values were calculated using a smart fitting model in Genedata. The IC50 value was the concentration of test compound that inhibited 50% of biological activity. Assay a): GLS Enzyme Potency Assay
A Glutamate Oxidase/AmplexRed coupled assay was used to measure the ability of compounds to bind to and inhibit the activity of GLS1 in vitro. 6His tagged GLS protein (amino acids 63-669) expressed in E. Coli was purified and stored at −80° C. in aliquots. GLS1 was diluted to 2×working concentration and incubated at r.t. to allow the tetrameric/dimeric forms to reach steady state. Assay measurements were performed in buffer comprising 50 mM TRIS pH 7.8, 100 mM NaPO4, pH 7.8, 0.001% v/v Tween20. Purified recombinant GLS1 protein was diluted in assay buffer to 12 nM and pre-incubated at r.t. for 30 minutes. Test compounds were prepared by dilution in 100% DMSO to give the correct dose range for 12 point concentration response and an appropriate volume (2.5-60 nl) dispensed into 384 well micro assay plates (Greiner product code 784900) using a Labcyte Echo 555 acoustic dispenser. DMSO concentration was maintained at 2% by back filling with DMSO solution. 3 μL of diluted GLS1 protein (12 nM) was then dispensed into each well using a BioRaptr automated dispenser (Beckman-Coulter) and incubated for 15 minutes at r.t. 3 μl of 100 mM glutamine diluted in assay buffer was then added and the reaction incubated at r.t. for 60 minutes. The reaction was then stopped by addition of 45 μM 6-(2-bromoethynyl)-2,3-dimethyl-quinazolin-4-one, 75 μM Amplex Red, 0.375 units/mL Horseradish Peroxidase, 0.12 units/mL Glutamate Oxidase in 100 mM TRIS pH7.5. After 30 minutes at room temp in the dark, plates were read on a Perkin Elmer EnVision using 535/590 nm optic filters and raw data analysed using Genedata to generate IC50 values. An artefact version of the assay where the 6His tagged GLS protein and glutamine were replaced with assay buffer was also used to rule out non specific effects on the assay components.

Chain of GLS1 (O94925 63-669): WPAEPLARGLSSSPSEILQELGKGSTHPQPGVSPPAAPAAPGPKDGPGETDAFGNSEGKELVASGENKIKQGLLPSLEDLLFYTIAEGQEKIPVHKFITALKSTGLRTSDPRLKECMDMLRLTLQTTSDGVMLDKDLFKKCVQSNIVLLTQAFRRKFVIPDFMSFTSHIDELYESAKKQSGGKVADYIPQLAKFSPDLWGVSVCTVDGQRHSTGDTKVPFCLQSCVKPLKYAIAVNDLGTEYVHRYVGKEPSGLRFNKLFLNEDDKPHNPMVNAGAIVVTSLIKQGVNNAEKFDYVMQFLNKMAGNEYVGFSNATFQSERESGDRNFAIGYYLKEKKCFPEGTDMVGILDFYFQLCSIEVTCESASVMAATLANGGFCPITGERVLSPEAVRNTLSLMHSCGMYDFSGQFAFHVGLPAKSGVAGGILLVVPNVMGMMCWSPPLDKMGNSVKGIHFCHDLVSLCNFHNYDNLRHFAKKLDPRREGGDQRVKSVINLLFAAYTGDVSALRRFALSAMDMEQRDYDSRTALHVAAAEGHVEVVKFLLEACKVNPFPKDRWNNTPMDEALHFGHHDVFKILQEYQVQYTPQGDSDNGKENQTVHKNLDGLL

Regarding `COc1cccc([C@H](OC)C(=O)Nc2ccc(N3CC[C@@H](Nc4cccnn4)C3)nn2)c1` [Example 3, (2S)-2-Methoxy-2-(3-methoxyphenyl)-N-[6-[(3R)-3-(pyridazin-3-ylamino)pyrrolidin-1-yl]pyridazin-3-yl]acetamide], the figures for the IC50 (with NCI-H1703 cells; in experiment [1]; against GLS1) were 3 nM, 1 nM and 29.8 nM, respectively.

Regarding `O=C(Cc1ccccc1C(F)(F)F)Nc1ccc(N2CC[C@@H](Nc3cccnn3)C2)nn1` [Example 5, N-[6-[(3R)-3-(Pyridazin-3-ylamino)pyrrolidin-1-yl]pyridazin-3-yl]-2-[2-(trifluoromethyl)phenyl]acetamide], the IC50 in the experiment on NCI-H1703 cells worked out at 3 nM; in experiment [1], 1 nM; at GLS1 it was 30.6 nM.

Take `O=C(Cc1ccccc1OC(F)(F)F)Nc1ccc(N2CC[C@@H](Nc3cccnn3)C2)nn1` [Example 6, N-[6-[(3R)-3-(Pyridazin-3-ylamino)pyrrolidin-1-yl]pyridazin-3-yl]-2-[2-(trifluoromethoxy)phenyl]acetamide]: the IC50 amounted to 12 nM in the experiment on NCI-H1703 cells, 1 nM in experiment [1] and 25.2 nM against GLS1.

For `CO[C@H](C(=O)Nc1ccc(N2CC[C@@H](Nc3cccnn3)C2)nn1)c1cccc(OC(F)F)c1` [Example 1, (2S)-2-[3-(Difluoromethoxy)phenyl]-2-methoxy-N-[6-[(3R)-3-(pyridazin-3-ylamino)pyrrolidin-1-yl]pyridazin-3-yl]acetamide], the IC50 with NCI-H1703 cells was 9 nM; in experiment [1], 1 nM; against GLS1, 24.7 nM.

With `CO[C@H](C(=O)Nc1ccc(N2CC[C@@H](Nc3cccnn3)C2)nn1)c1cccc(OC(F)(F)F)c1` [Example 2, (2S)-2-[3-(Trifluoromethoxy)phenyl]-2-methoxy-N-[6-[(3R)-3-(pyridazin-3-ylamino)pyrrolidin-1-yl]pyridazin-3-yl]acetamide], the IC50 with NCI-H1703 cells stood at 11 nM; in experiment [1], 1 nM; against GLS1 it was 95.7 nM.

Consider `COc1ccccc1CC(=O)Nc1ccc(N2CC[C@@H](Nc3cccnn3)C2)nn1` [Example 4, 2-(2-Methoxyphenyl)-N-[6-[(3R)-3-(pyridazin-3-ylamino)pyrrolidin-1-yl]pyridazin-3-yl]acetamide], for which the IC50 in the experiment on NCI-H1703 cells turned out to be 43 nM; in experiment [1], 7 nM; on GLS1, 30.9 nM.
